Data reported in patent US20250034154A1, “SALTS AND SOLID FORMS OF A COMPOUND THAT MODULATES IRAK4” (Gilead Sciences, Inc., priority 2023, published 2025).

Assay: Dynamic vapor sorption (DVS) hygroscopicity
Type: physicochemical
Experimental: Hygroscopicity was studied using dynamic vapor sorption (DVS, TA Q5000 SA, TA Instruments, New Castle, DE or DVS, DVS Intrinsic, Surface Measurement Systems, London, UK). A sample (2-20 mg) was placed in an aluminum DVS pan and loaded on the sample side of the twin pan balance. The water sorption and desorption were studied as a function of relative humidity (RH) at 25° C. In 10% RH increments, the relative humidity was increased from 5% RH to 95% RH and then decreased back to 5%. […] Data analysis was performed using Universal Analysis 2000 Version 4.7A (TA Instruments, New Castle, DE) for TA DVS runs and Microsoft Excel for SMS DVS runs.

water absorbed (DVS analysis) (25° C. and 95% RH): less than 0.1 wt %
hygroscopicity (DVS analysis) (25° C., up to 95% RH): non-hygroscopic
form change by XRPD analysis of the sample post DVS analysis (post DVS): no form change
Structure (SMILES): C[C@H](C#N)Nc1cc(-c2ccc3cc(C#N)cnn23)ncc1C(=O)NC[C@@H](F)C(C)(C)O [Form IV, 4-(((R)-1-cyanoethyl)amino)-6-(3-cyanopyrrolo[1,2-b]pyridazin-7-yl)-N—((R)-2-fluoro-3-hydroxy-3-methylbutyl)nicotinamide]
